Patent US11414379B2, “SPAK kinase inhibitors as neuroprotective agents” (United States Government as represented by the Department …, priority 2018, dated 2022)
“Also recorded” adds a separate entry of the source.

Experiments:
[1] = tested on: mouse model of ischemic stroke; assay: Infarct volume and hemispheric swelling after transient MCAO; assay type: in vivo; conditions: 2.5 mg/kg; 24 hr reperfusion
Description: Under an operating microscope, the left common carotid artery was exposed through a midline incision. […] The ECA was dissected further distally and permanently ligated. The internal carotid artery (ICA) was isolated and carefully separated from the adjacent vagus nerve. A 12 mm length of silicon-coated nylon filament (size 6-0, native diameter 0.11 mm; diameter with coating 0.21+/−0.02 mm; coating length 5-6 mm; Doccol Corporation, Sharon, Mass.) was introduced into the ECA lumen through a puncture. The silk suture around the ECA stump was tightened around the intraluminal nylon suture to prevent bleeding. The nylon suture was then gently advanced from the ECA to the ICA lumen until mild resistance was felt (˜9 mm). For reperfusion, the suture was withdrawn 50 min after MCAO to restore blood flow. Body temperature was maintained for the duration of the experiment between 36.5° C.-37° C. with a small animal heating pad (Kent Scientific).
At 24 hours reperfusion, mice were anesthetized with 5% isoflurane and then decapitated. Coronal brain tissue slices (2 mm) were stained for 20 minutes at 37° C. with 1% 2,3,5-triphenyltetrazolium chloride monohydrate (TTC; Sigma, St Louis, Mo.) in PBS solution. […] The extent of hemispheric swelling was calculated using the following equation: swelling (% contralateral side)=[(volume of ipsilateral hemisphere−volume of contralateral hemisphere)/volume of contralateral hemisphere]×100 (Bhuiyan et al. (2017) Journal of cerebral blood flow and metabolism: official journal of the International Society of Cerebral Blood Flow and Metabolism 37: 2780-2794).
Referring to FIG. 11A, an experimental design of ischemic stroke study is shown. Vehicle or ZT-1a is administered at 3 hrs and 8 hrs post-MCAO.
Referring to FIG. 11B, representative images and quantification of infarct volume and hemispheric swelling in TTC-stained coronal sections of mouse brains 24 hrs post-MCAO are shown. Vehicle (DMSO, 2 ml/kg) or ZT-1a (2.5 or 5.0 mg/kg) were administered with an initial half dose at 3 hrs and the second half dose at 8 hr reperfusion via intra-peritoneal injection (i.p.). Data are mean±SD, n=6-12 per group (male). * p<0.05.

mice = assay: Adverse effects of WNK463 administered to mice; assay type: in vivo, mouse; conditions: 2.5 mg/kg dose
all four WNK kinases = conditions: cited from earlier work
[2] = tested on: normotensive and hypertensive rodent models; conditions: oral administration of 1-10 mg/kg; cited from earlier work

CC(C)(C)NC(=O)c1cncn1C1CCN(c2ccc(-c3nnc(C(F)(F)F)o3)cn2)CC1 [WNK463]
effect on infarct volume and hemispheric swelling [1]: reduced neither infarct volume nor hemispheric swelling; also recorded: no neuroprotective effects
adverse effects (mice): ataxia and breathing difficulties
inhibition of WNK kinases in vitro (all four WNK kinases): nanomolar range
effect on blood pressure [2]: reduced blood pressure
